# According to publication PMC4655838, “Versatility in phospho-dependent molecular recognition of the XRCC1 and XRCC4 DNA-damage scaffolds by aprataxin-family FHA domains” (DNA Repair, 2015):
# Where two headings read alike, the source gives them in different places. Square brackets hold non-standard residues; d marks the D form. Peptide text beside a SMILES is read from it. pT = C[C@@H](OP(=O)(O)O)[C@H](N)C(=O)O; pS = N[C@@H](COP(=O)(O)O)C(=O)O
# What was measured:
# Format in all cases: binding
# [1] = target: T1, wild-type aprataxin FHA domain (Homo sapiens, UniProt Q7Z2E3); assay: ITC of wild-type aprataxin FHA domain with XRCC1 and XRCC4 phosphopeptides; conditions: 22 °C, 50 mM HEPES pH 7.5, 150 mM NaCl, 5 mM β-mercaptoethanol, peptide in syringe, XRCC1 peptides 1 mM into 100 μM protein, XRCC4 peptides 300 μM into 30 μM protein, single-site model, representative of triplicate
# T1 construct: aprataxin residues 1–105; GST (pGEX-6P-1) (N, cleaved yes); made in house; host or cells: Escherichia coli BL21 (DE3)
# Source text: (§1) The genes for aprataxin residues 1–105 and APLF residues 1–106 were amplified using primer sets which incorporated 5′ BamHI and 3′ XhoI sites. PCR products and pGEX-6P-1 vector were digested with BamHI and XhoI and religated. All point mutations were generated using a QuickChange Site-Directed Mutagenesis Kit (Stratagene) following the manufacturer's recommended protocol.
# (§2) For expression, the pGEX-6P-1/aprataxin-FHA constructs were transformed into Escherichia coli strain BL21 (DE3) and the pGEX-6P-1/APLF-FHA constructs transformed into the strain Rosetta2 (DE3). Cells were grown in LB at 37 °C to an A600 of 0.5, induced with 0.4 mM isopropyl 1-thio-β-D-galactopyranoside and incubated at 18 °C for a further 16 h before harvesting. Cells were lysed by sonication and clarified by centrifugation (20,000 × g × 30 min). The supernatant was applied to a glutathione-4B resin (Amersham) and cleaved from the resin with rhinovirus 3C protease. Proteins were purified further by gel-filtration chromatography on a Superdex 75 matrix in 20 mM Tris pH 7.5, 150 mM NaCl, 5 mM DTT. Selenomethionine-labelled APLF L91 M protein was expressed in Rosetta2 (DE3) cells cultured in SelenoMet base media and nutrients supplemented with seleno-methionine solution (Molecular Dimensions Ltd.) and purified as the wild-type protein.
# (§3) Phosphopeptides based on the XRCC1 sequence 515-YAGSTDENTDSEEHQ-529 and the XRCC4 sequence 229-YDESTDEES-237 were synthesised with amidated C-termini to avoid potential end-effects of a free carboxy-terminus by Dr. W. Mawby (University of Bristol), purified by HPLC and characterised by mass spectrometry. FHA-phosphopeptide binding was quantified by isothermal titration calorimetry using a Microcal Omega VP-ITC calorimeter (MicroCal Inc., Northampton, MA). Protein was dialysed against ITC buffer (50 mM HEPES pH 7.5, 150 mM NaCl, 5 mM β-mercaptoethanol) and peptides were dissolved in the dialysis buffer. Experiments were carried out at 22 °C and involved 30 successive 10 μl injections of peptide solution into a sample cell containing protein solution. Titrations with XRCC1 peptides used peptide at 1 mM and protein at 100 μM and titrations with XRCC4 peptides used peptide at 300 μm and protein at 30 μM. Heats of dilution were subtracted and binding isotherms were plotted and analysed with MicroCal origin version 7.0, assuming a single-site binding model.
# aprataxin FHA domain = target: T2, aprataxin FHA domain (Homo sapiens, UniProt Q7Z2E3); assay: NMR (1H-SOFAST-HMQC) titrations of aprataxin FHA domain with XRCC1 phosphopeptides; conditions: NMR titration, 22 °C
# T2 construct: aprataxin residues 1–105; GST (pGEX-6P-1) (N, cleaved yes); made in house; host or cells: Escherichia coli BL21 (DE3)
# Method: NMR experiments were carried out at 22 °C on Bruker Avance II+ 600 MHz and Avance III 700 MHz spectrometers, each equipped with a cryogenic triple-resonance probe. Protein and peptides were prepared in NMR buffer (20 mM Na Acetate pH 5.8, 50 mM NaCl, 2 mM DTT). Three-dimensional HNCA, HNCO, HNCACB and CBCA(CO)NH experiments were performed to obtain backbone assignments. NMR titration experiments were carried out by adding the unlabelled XRCC1 peptides to ^15N-labeled aprataxin FHA domain. The initial protein concentration was 92 μM and volumes of 2 mM stock solution of peptide were added until the protein:peptide ratio was 1:4. ^1H-SOFAST-HMQC [36] spectra were measured after each titration step. All spectra were processed using nmrPipe, and analysed using CARA/NEASY [38]. The weighted chemical shift change (in ppm units) of each amide proton (ΔδHN) and nitrogen (ΔδN) was calculated according to the equation: Δδtotal = [(ΔδHNWHN)^2 + (ΔδNWN)^2]^1/2 with WHN = 1 and WN = 0.154 [39]. Weighted chemical shifts for residues D37, V45, Q46, V61 and V63 were plotted against peptide concentration to determine individual Kds and averaged to determine the apparent Kd.
# [2] = target: T3, K38A Mutant of aprataxin FHA domain (Homo sapiens, UniProt Q7Z2E3, K52A); assay: ITC of K38A mutant of aprataxin FHA domain with XRCC1 and XRCC4 phosphopeptides; conditions: 22 °C, 50 mM HEPES pH 7.5, 150 mM NaCl, 5 mM β-mercaptoethanol, single-site model
# T3 construct: aprataxin residues 1–105; GST (pGEX-6P-1) (N, cleaved yes); made in house; host or cells: Escherichia coli BL21 (DE3)
# Source text: as §1, §2, §3
# [3] = target: T4, wild-type APLF FHA domain (Homo sapiens, UniProt Q8IW19); assay: ITC of wild-type APLF FHA domain with XRCC1 and XRCC4 phosphopeptides; conditions: 22 °C, 50 mM HEPES pH 7.5, 150 mM NaCl, 5 mM β-mercaptoethanol, peptide in syringe, XRCC1 peptides 1 mM into 100 μM protein, XRCC4 peptides 300 μM into 30 μM protein, single-site model, representative of triplicate
# T4 construct: APLF residues 1–106; GST (pGEX-6P-1) (N, cleaved yes); made in house; host or cells: Escherichia coli Rosetta2 (DE3)
# T4 sequence (Q8IW19 1-106): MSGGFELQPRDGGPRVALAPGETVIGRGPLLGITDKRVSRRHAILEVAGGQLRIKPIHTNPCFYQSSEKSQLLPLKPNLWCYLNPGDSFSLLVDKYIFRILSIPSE
# Source text: as §1
# For expression, the pGEX-6P-1/aprataxin-FHA constructs were transformed into Escherichia coli strain BL21 (DE3) and the pGEX-6P-1/APLF-FHA constructs transformed into the strain Rosetta2 (DE3). Cells were grown in LB at 37 °C to an A600 of 0.5, induced with 0.4 mM isopropyl 1-thio-β-D-galactopyranoside and incubated at 18 °C for a further 16 h before harvesting. […]
# Phosphopeptides based on the XRCC1 sequence 515-YAGSTDENTDSEEHQ-529 and the XRCC4 sequence 229-YDESTDEES-237 were synthesised with amidated C-termini to avoid potential end-effects of a free carboxy-terminus by Dr. W. Mawby (University of Bristol), purified by HPLC and characterised by mass spectrometry. FHA-phosphopeptide binding was quantified by isothermal titration calorimetry using a Microcal Omega VP-ITC calorimeter (MicroCal Inc., Northampton, MA). […] Heats of dilution were subtracted and binding isotherms were plotted and analysed with MicroCal origin version 7.0, assuming a single-site binding model.
# [4] = target: T5, R42A Mutant of aprataxin FHA domain (Homo sapiens, UniProt Q7Z2E3, R56A); assay: ITC of R42A mutant of aprataxin FHA domain with XRCC1 and XRCC4 phosphopeptides; conditions: 22 °C, 50 mM HEPES pH 7.5, 150 mM NaCl, 5 mM β-mercaptoethanol, single-site model
# T5 construct: aprataxin residues 1–105; GST (pGEX-6P-1) (N, cleaved yes); made in house; host or cells: Escherichia coli BL21 (DE3)
# Source text: as §1, §2, §3
# T2 sequence (Q7Z2E3 15-119): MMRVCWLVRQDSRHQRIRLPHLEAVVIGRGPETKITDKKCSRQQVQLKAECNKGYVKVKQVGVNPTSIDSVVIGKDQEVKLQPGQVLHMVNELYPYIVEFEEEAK
# T1 sequence (Q7Z2E3 15-119): as above
# T3 sequence (Q7Z2E3 15-119 K52A): as the sequence (Q7Z2E3 15-119) above, with K38A counted along it
# T5 sequence (Q7Z2E3 15-119 R56A): as the sequence (Q7Z2E3 15-119) above, with R42A counted along it
structure (smiles),measurement,setting,value
C[C@H](NC(=O)[C@@H](N)Cc1ccc(O)cc1)C(=O)NCC(=O)N[C@@H](COP(=O)(O)O)C(=O)N[C@H](C(=O)N[C@@H](CC(=O)O)C(=O)N[C@@H](CCC(=O)O)C(=O)N[C@@H](CC(N)=O)C(=O)N[C@H](C(=O)N[C@@H](CC(=O)O)C(=O)N[C@@H](CO)C(=O)N[C@@H](CCC(=O)O)C(=O)N[C@@H](CCC(=O)O)C(=O)N[C@@H](Cc1c[nH]cn1)C(=O)N[C@@H](CCC(N)=O)C(N)=O)[C@@H](C)OP(=O)(O)O)[C@@H](C)OP(=O)(O)O [YAGpSpTDENpTDSEEHQ] (H-YAG[pS][pT]DEN[pT]DSEEHQ-NH2),Kd,[1],0.5 ± 0.05 µM
same,Kd,"aprataxin FHA domain; 20 mM Na Acetate pH 5.8, 50 mM NaCl, 2 mM DTT, 92 µM 15N aprataxin FHA, 2 mM peptide stock, read-out: Kd from weighted chemical shift of residue Asp37",0.1 µM
same,Kd,"aprataxin FHA domain; pH 5.8, 92 µM aprataxin FHA, read-out: Kd from weighted chemical shift of residue Gln46",0.1 µM
same,Kd,"aprataxin FHA domain; pH 5.8, 92 µM aprataxin FHA, read-out: Kd from weighted chemical shift of residue Val45",0.6 µM
same,Kd,"aprataxin FHA domain; pH 5.8, 92 µM aprataxin FHA, read-out: Kd from weighted chemical shift of residue Val61",0.1 µM
same,Kd,"aprataxin FHA domain; pH 5.8, 92 µM aprataxin FHA, read-out: Kd from weighted chemical shift of residue Val63",0.5 µM
same,Kd,"aprataxin FHA domain; pH 5.8, mean of individual Kds of D37, V45, Q46, V61, V63, read-out: Kd, Mean (SEM) over five residues (apparent Kd)",0.3 µM
same,Kd,"aprataxin FHA domain; pH 5.8, tighter binders not well defined due to high protein concentration, read-out: overall apparent affinity (Kdapp) estimated from NMR titrations",< 1 µM
same,Kd,[2],4.4 ± 0.3 µM
same,Kd,[3],11 ± 0.5 µM
same,Kd,[4],28.7 ± 1.9 µM
